From patent US10717766B2, “Antimicrobial peptides and uses thereof” (TECHNION RESEARCH & DEVELOPMENT FOUNDATION LIMITED, priority 2016, dated 2020)
Like-named read-outs stand apart in the source and are kept apart here.

Tests used:
Staphylococcus hominis [1] = assay: minimal inhibition concentration (MIC) against Staphylococcus hominis; type: cell-based; settings: O.D600 nm after 24 hours incubation at 37° C. with agitation, FIG. 4
Method: N-terminal acetylation of peptides is known to enhance fibril formation. Therefore, the bacterial growth of Staphylococcus hominis was tested by capped peptides of SEQ ID NO: 1 and 2. […] The lowest concentration at which no growth was observed is determined as the MIC. The experiment was performed in triplicates.

Staphylococcus hominis [2] = assay: growth of Staphylococcus hominis after treatment with 0.5 mM peptide; type: cell-based; settings: 24 hours, 37° C. under agitation, FIG. 6
Method: (§1) Extended fragments of the LFKFFK (SEQ ID NO: 1) sequence were derived from Staphylococcus aureus (PSMα3 derivatives) in order to determine the minimum peptide length critical for the antibacterial activity. […] Therefore, the antibacterial activity of its fragments comprising SEQ ID NO: 1, as listed in Table 1, were examined on the growth of Staphylococcus epidermidis ATCC 12228 cells, Staphylococcus hominis, and Lactobacillus casei after 24 hours from treatment with 0.5 mM peptide at 37° C. under agitation compared to control (bacterial growth w/o peptide). Lactobacillus casei are probiotic bacteria. Therefore, the peptides listed in Table 1 were also tested against bacteria of the human flora.

[3] = test system: Staphylococcus epidermidis ATCC 12228; assay: antibacterial activity (MIC) of fragments against Staphylococcus epidermidis ATCC 12228; type: cell-based; settings: FIG. 5
Method: as §1

Micrococcus luteus = assay: diameter of the growth inhibition of Micrococcus luteus cells; type: cell-based; settings: for growth inhibition of Micrococcus luteus: FIG. 2A; for diameter of the growth inhibition of Micrococcus luteus: various concentrations
Source text: The anti-bacterial activity of LFKFFK peptide (SEQ ID NO: 1), KLFKFFK peptide (SEQ ID NO: 3) and control peptides with a hydrophobic/cationic amino-acid composition, IIKVIK (SEQ ID NO: 10) and IIKIIK (SEQ ID NO: 11), was examined by determining the diameter of the growth inhibition of Micrococcus luteus cells.

bacteria = settings: native full-length 22-residue peptide, cited from earlier work

## Ac-KLFKFFK-NH2 (listed as Staphylococcus aureus) [compound 2]
Staphylococcus hominis [1]
  MIC: 15
Staphylococcus hominis [2]
  antibacterial effect against S. hominis (growth compared to control w/o peptide): partially active

## Ac-KLFKFFKD-NH2 (listed as Staphylococcus aureus) [compound 3]
Staphylococcus hominis [2]
  antibacterial effect against S. hominis (growth compared to control w/o peptide): partially active

## Ac-KLFKFFKDLL-NH2 (listed as Staphylococcus aureus) [compound 5]
[3]
  anti-bacterial activity (MIC) against Staphylococcus epidermidis ATCC 12228: better anti-bacterial activity

## Ac-KLFKFFKDLLG-NH2 (listed as Staphylococcus aureus) [compound 6]
[3]
  anti-bacterial activity (MIC) against Staphylococcus epidermidis ATCC 12228: better anti-bacterial activity

## Ac-LFKFFK-NH2 (listed as Staphylococcus aureus) [compound 1]
Staphylococcus hominis [2]
  antibacterial effect against S. hominis (growth compared to control w/o peptide): partially active

## Ac-VAKLFKFFKDLLGKFL-NH2 (listed as Staphylococcus aureus) [peptide 8]
[3]
  anti-bacterial activity (MIC) against Staphylococcus epidermidis ATCC 12228: fails to exhibit any antibacterial activity

## KLFKFFK (listed as Staphylococcus aureus)
Micrococcus luteus
  growth inhibition of Micrococcus luteus: inhibit the growth
Micrococcus luteus; FIG. 2B
  toxicity to Micrococcus Luteus compared with LFKFFK: even more toxic
  diameter of the growth inhibition of Micrococcus luteus: dose-dependent effect

## LFKFFK (listed as Staphylococcus aureus) [fragment of PSMalpha3]
Micrococcus luteus
  growth inhibition of Micrococcus luteus: inhibit the growth
Micrococcus luteus; FIG. 2B
  diameter of the growth inhibition of Micrococcus luteus: dose-dependent effect

## MEFVAKLFKFFKDLLGKFLGNN [PSMalpha3]
bacteria
  antibacterial activity: lacks antibacterial activity
bacteria; listed as SEQ ID NO: 2
  antibacterial activity: lack an antibacterial activity
